Measured values reported in US10131652B2, “Pyrimidinyloxy benzene derivatives as herbicides” (E. I. DU PONT DE NEMOURS AND COMPANY, priority 2014, dated 2018).
Read-outs that look alike come from different tables or passages of the source.

Legend:
Assay type in all cases: in vivo
[1] = tested on: barnyardgrass (Echinochloa crus-galli); experiment: Test B pre-/postemergence plant response; settings: Echinochloa crus-galli, 240 h, 1000 g ai/ha, 0 to 100 scale (0 no effect, 100 complete control), read-out: Plant response rating, Barnyardgrass
In short: (§1)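 Seeds in loam–sand blend given preemergence soil spray; separately, plants at one- to two-leaf stage (2–10 cm) sprayed postemergence, compounds in non-phytotoxic solvent with surfactant. Injury rated visually versus untreated controls after ~10 days in greenhouse, 0 (no effect) to 100 (complete control).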

corn (Zea mays) = experiment: Test B pre-/postemergence plant response; settings: Zea mays, post-emergence, 240 h; Postemergence, 1000 g ai/ha; 0 to 100 scale (0 no effect, 100 complete control)
In short: as §1

[2] = tested on: giant foxtail (Setaria faberii); experiment: Test B pre-/postemergence plant response; settings: Setaria faberi, 240 h, 1000 g ai/ha, 0 to 100 scale (0 no effect, 100 complete control), read-out: Plant response rating, Foxtail, Giant
In short: as §1

[3] = tested on: pigweed (Amaranthus retroflexus); experiment: Test B pre-/postemergence plant response; settings: Amaranthus retroflexus, 240 h, 1000 g ai/ha, 0 to 100 scale (0 no effect, 100 complete control), read-out: Plant response rating, Pigweed
In short: as §1

[4] = tested on: wheat (Triticum aestivum); experiment: Test B pre-/postemergence plant response; settings: Triticum aestivum, post-emergence, 240 h; Postemergence, 1000 g ai/ha; 0 to 100 scale (0 no effect, 100 complete control); read-out: Plant response rating, Wheat
In short: as §1

[5] = tested on: barnyardgrass (Echinochloa crus-galli); experiment: Test C flooded paddy test plant response; settings: Echinochloa crus-galli; Flood, 250 g ai/ha; scale of 0 to 100 where 0 is no effect and 100 is complete control; 13 to 15 days; read-out: Barnyardgrass plant response rating
In short: (§2)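 Plants grown to the 2-leaf stage; pots flooded to 3 cm above soil, test compounds applied directly to paddy water, depth maintained throughout. Greenhouse for 13 to 15 days, then visual rating versus controls on a 0–100 scale (0 no effect, 100 complete control).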

[6] = tested on: ducksalad (Heteranthera limosa); experiment: Test C flooded paddy test plant response; settings: Heteranthera limosa; Flood, 250 g ai/ha; scale of 0 to 100 where 0 is no effect and 100 is complete control; 13 to 15 days; read-out: Ducksalad plant response rating
In short: as §2

rice (Oryza sativa) = experiment: Test C flooded paddy test plant response; settings: Oryza sativa; Flood, 250 g ai/ha; scale of 0 to 100 where 0 is no effect and 100 is complete control; 13 to 15 days; read-out: Rice plant response rating
In short: as §2

[7] = tested on: small-flower umbrella sedge (Cyperus difformis); experiment: Test C flooded paddy test plant response; settings: Cyperus difformis; Flood, 250 g ai/ha; scale of 0 to 100 where 0 is no effect and 100 is complete control; 13 to 15 days; read-out: Sedge, Umbrella plant response rating
In short: as §2

[8] = tested on: galium (catchweed bedstraw, Galium aparine); experiment: Test D pre-/postemergence plant response; settings: Galium; for pest or weed control at 16 g/ha: 16 g ai/ha; for pest or weed control at 31 g/ha: 31 g ai/ha; for pest or weed control at 62 g/ha: 62 g ai/ha; for pest or weed control at 125 g/ha: 125 g ai/ha
Text: (§3) Seeds of plant species selected from blackgrass (Alopecurus myosuroides), Italian ryegrass (Lolium multiflorum), winter wheat (Triticum aestivum), galium (catchweed bedstraw, Galium aparine), corn (Zea mays), large (Lg) crabgrass (Digitaria sanguinalis), giant foxtail (Setaria faberii), johnsongrass (Sorghum halepense), lambsquarters (Chenopodium album), morningglory (Ipomoea coccinea), yellow nutsedge (Cyperus esculentus), pigweed (Amaranthus retroflexus), ragweed (common ragweed, Ambrosia elatior), soybean (Glycine max), bamyardgrass (Echinochloa crus-galli), oilseed rape (Brassica napus), waterhemp (common waterhemp, Amaranthus rudis), and velvetleaf (Abutilon theophrasti) were planted into a blend of loam soil and sand and treated preemergence with test chemicals formulated in a non-phytotoxic solvent mixture which included a surfactant. At the same time, plants selected from these crop and weed species and also kochia (Kochia scoparia), wild oat (Avena fatua), and chickweed (common chickweed, Stellaria media) were planted in pots containing Redi-Earth® planting medium (Scotts Company, 14111 Scottslawn Road, Marysville, Ohio 43041) comprising spaghnum peat moss, vermiculite, wetting agent and starter nutrients and treated with postemergence applications of test chemicals formulated in the same manner. Plants ranged in height from 2 to 18 cm (1- to 4-leaf stage) for postemergence treatments. Treated plants and controls were maintained in a greenhouse for 13 to 15 days, after which time all species were compared to controls and visually evaluated. Plant response ratings, summarized in Table D, are based on a scale of 0 to 100 where 0 is no effect and 100 is complete control. A dash (-) response means no test result.

[9] = tested on: johnsongrass (Sorghum halepense); experiment: Test D pre-/postemergence plant response; settings: Sorghum halepense; for pest or weed control at 16 g/ha: 16 g ai/ha; for pest or weed control at 31 g/ha: 31 g ai/ha; for pest or weed control at 62 g/ha: 62 g ai/ha; for pest or weed control at 125 g/ha: 125 g ai/ha
Text: as §3

[10] = tested on: oilseed rape (Brassica napus); experiment: Test D pre-/postemergence plant response; settings: Brassica napus; for plant injury at 16 g/ha: 16 g ai/ha; for plant injury at 31 g/ha: 31 g ai/ha; for plant injury at 62 g/ha: 62 g ai/ha; for plant injury at 125 g/ha: 125 g ai/ha
Text: as §3

[11] = tested on: ragweed (common ragweed, Ambrosia elatior); experiment: Test D pre-/postemergence plant response; settings: Ambrosia artemisiifolia; for pest or weed control at 16 g/ha: 16 g ai/ha; for pest or weed control at 31 g/ha: 31 g ai/ha; for pest or weed control at 62 g/ha: 62 g ai/ha; for pest or weed control at 125 g/ha: 125 g ai/ha
Text: as §3

[12] = tested on: winter wheat (Triticum aestivum); experiment: Test D pre-/postemergence plant response; settings: Triticum aestivum; for plant injury at 16 g/ha: 16 g ai/ha; for plant injury at 31 g/ha: 31 g ai/ha; for plant injury at 62 g/ha: 62 g ai/ha; for plant injury at 125 g/ha: 125 g ai/ha
Text: as §3

[13] = tested on: yellow nutsedge (Cyperus esculentus); experiment: Test D pre-/postemergence plant response; settings: Cyperus; for pest or weed control at 16 g/ha: 16 g ai/ha; for pest or weed control at 31 g/ha: 31 g ai/ha; for pest or weed control at 62 g/ha: 62 g ai/ha; for pest or weed control at 125 g/ha: 125 g ai/ha
Text: as §3

[14] = post-emergence, Postemergence, scale 0 to 100 (0 no effect, 100 complete control), read-out: Galium plant response rating
[15] = post-emergence, Postemergence, scale 0 to 100, 0 no effect, 100 complete control, read-out: Plant response rating, Galium
[16] = pre-emergence, Preemergence, scale 0 to 100 (0 no effect, 100 complete control), read-out: Plant response rating, Galium
[17] = post-emergence, Postemergence, scale 0 to 100 (0 no effect, 100 complete control), read-out: Johnsongrass plant response rating
[18] = post-emergence, Postemergence, scale 0 to 100, 0 no effect, 100 complete control, read-out: Plant response rating, Johnsongrass
[19] = pre-emergence, Preemergence, scale 0 to 100 (0 no effect, 100 complete control), read-out: Plant response rating, Johnsongrass
[20] = post-emergence, Postemergence, scale 0 to 100 (0 no effect, 100 complete control), read-out: Oilseed Rape plant response rating
[21] = post-emergence, Postemergence, scale 0 to 100, 0 no effect, 100 complete control, read-out: Plant response rating, Oilseed Rape
[22] = pre-emergence, Preemergence, scale 0 to 100 (0 no effect, 100 complete control), read-out: Plant response rating, Oilseed Rape
[23] = post-emergence, Postemergence, scale 0 to 100 (0 no effect, 100 complete control), read-out: Ragweed plant response rating
[24] = post-emergence, Postemergence, scale 0 to 100, 0 no effect, 100 complete control, read-out: Plant response rating, Ragweed
[25] = pre-emergence, Preemergence, scale 0 to 100 (0 no effect, 100 complete control), read-out: Plant response rating, Ragweed
[26] = post-emergence, Postemergence, scale 0 to 100 (0 no effect, 100 complete control), read-out: Wheat plant response rating
[27] = post-emergence, Postemergence, scale 0 to 100, 0 no effect, 100 complete control, read-out: Plant response rating, Wheat
[28] = pre-emergence, Preemergence, scale 0 to 100 (0 no effect, 100 complete control), read-out: Plant response rating, Wheat
[29] = post-emergence, Postemergence, scale 0 to 100 (0 no effect, 100 complete control), read-out: Nutsedge, Yellow plant response rating
[30] = post-emergence, Postemergence, scale 0 to 100, 0 no effect, 100 complete control, read-out: Plant response rating, Nutsedge, Yellow
[31] = pre-emergence, Preemergence, scale 0 to 100 (0 no effect, 100 complete control), read-out: Plant response rating, Nutsedge, Yellow

Compound: Fc1cccc(Oc2ncc(Cl)cn2)c1-c1cc(C(F)F)on1 [Compound 55, 5-chloro-2-[2-[5-(difluoromethyl)-3-isoxazolyl]-3-fluorophenoxy]pyrimidine]
- pest or weed control at 1000 g/ha ([1]; post-emergence, Postemergence): 100%
- pest or weed control at 1000 g/ha ([1]; pre-emergence, Preemergence): 100%
- Corn plant response rating (crop injury, 0 = no effect, 100 = complete kill) at 1000 g/ha (corn (Zea mays)): 100%
- pest or weed control at 1000 g/ha ([2]; post-emergence, Postemergence): 100%
- pest or weed control at 1000 g/ha ([2]; pre-emergence, Preemergence): 100%
- pest or weed control at 1000 g/ha ([3]; post-emergence, Postemergence): 100%
- pest or weed control at 1000 g/ha ([3]; pre-emergence, Preemergence): 100%
- plant injury at 1000 g/ha [4]: 100%
- pest or weed control at 250 g/ha [5]: 25%
- pest or weed control at 250 g/ha [6]: 100%
- plant injury at 250 g/ha (rice (Oryza sativa)): 25%
- pest or weed control at 250 g/ha [7]: 90%
- pest or weed control at 16 g/ha [8, 14]: 80%
- pest or weed control at 31 g/ha [8, 14]: 90%
- pest or weed control at 62 g/ha [8, 15]: 90%
- pest or weed control at 125 g/ha [8, 15]: 90%
- pest or weed control at 125 g/ha ([8]; pre-emergence, Preemergence, read-out: Plant response rating (scale 0 to 100), Galium): 100%
- pest or weed control at 16 g/ha [8, 16]: 100%
- pest or weed control at 31 g/ha [8, 16]: 100%
- pest or weed control at 62 g/ha [8, 16]: 100%
- pest or weed control at 16 g/ha [9, 17]: 5%
- pest or weed control at 31 g/ha [9, 17]: 5%
- pest or weed control at 62 g/ha [9, 18]: 10%
- pest or weed control at 125 g/ha [9, 18]: 15%
- pest or weed control at 125 g/ha ([9]; pre-emergence, Preemergence, read-out: Plant response rating (scale 0 to 100), Johnsongrass): 100%
- pest or weed control at 16 g/ha [9, 19]: 30%
- pest or weed control at 31 g/ha [9, 19]: 75%
- pest or weed control at 62 g/ha [9, 19]: 85%
- plant injury at 16 g/ha [10, 20]: 95%
- plant injury at 31 g/ha [10, 20]: 95%
- plant injury at 62 g/ha [10, 21]: 100%
- plant injury at 125 g/ha [10, 21]: 100%
- plant injury at 125 g/ha ([10]; pre-emergence, Preemergence, read-out: Plant response rating (scale 0 to 100), Oilseed Rape): 100%
- plant injury at 16 g/ha [10, 22]: 100%
- plant injury at 31 g/ha [10, 22]: 100%
- plant injury at 62 g/ha [10, 22]: 100%
- pest or weed control at 16 g/ha [11, 23]: 25%
- pest or weed control at 31 g/ha [11, 23]: 40%
- pest or weed control at 62 g/ha [11, 24]: 65%
- pest or weed control at 125 g/ha [11, 24]: 90%
- pest or weed control at 125 g/ha ([11]; pre-emergence, Preemergence, read-out: Plant response rating (scale 0 to 100), Ragweed): 95%
- pest or weed control at 16 g/ha [11, 25]: 70%
- pest or weed control at 31 g/ha [11, 25]: 75%
- pest or weed control at 62 g/ha [11, 25]: 90%
- plant injury at 16 g/ha [12, 26]: 5%
- plant injury at 31 g/ha [12, 26]: 25%
- plant injury at 62 g/ha [12, 27]: 30%
- plant injury at 125 g/ha [12, 27]: 35%
- plant injury at 125 g/ha ([12]; pre-emergence, Preemergence, read-out: Plant response rating (scale 0 to 100), Wheat): 60%
- plant injury at 16 g/ha [12, 28]: 0%
- plant injury at 31 g/ha [12, 28]: 0%
- plant injury at 62 g/ha [12, 28]: 25%
- pest or weed control at 16 g/ha [13, 29]: 0%
- pest or weed control at 31 g/ha [13, 29]: 5%
- pest or weed control at 62 g/ha [13, 30]: 5%
- pest or weed control at 125 g/ha [13, 30]: 5%
- pest or weed control at 125 g/ha ([13]; pre-emergence, Preemergence, read-out: Plant response rating (scale 0 to 100), Nutsedge, Yellow): 70%
- pest or weed control at 16 g/ha [13, 31]: 0%
- pest or weed control at 31 g/ha [13, 31]: 10%
- pest or weed control at 62 g/ha [13, 31]: 55%
